Results on one compound are retold here after patent US11952328B2, “Selective ship inhibitors for treating disease” (THE RESEARCH FOUNDATION FOR THE STATE UNIVERSITY OF NEW YORK, priority 2018, dated 2024).

Entries after “also recorded” stand apart in the source; their conditions may differ.

Experiment [1] concerns MC-38 colon carcinoma cells. In words: Subcutaneous MC-38 colon carcinoma model. The format is in vivo, C57BL/6 mice. How it is done:
FIG. 7A and FIG. 7B show CT26 (FIG. 7A) and MC-38 (FIG. 7B) viability following in vitro treatment with 3AC for 24 h at indicated doses. Relative viability is expressed as frequency compared to solvent only treated cells. Kill curve summarizes pooled data from three independent experiments using six replicate wells/concentration with mean±SEM indicated. BALB/C mice were challenged with subcutaneous injection of CT26 colon carcinoma cells in the right flank. Mice were treated with either 2 consecutive days of 3AC or vehicle control each week as in FIG. 4A. Tumor size at […] 28 days (FIG. 7C), and tumor weight on day 28 determined after dissection of tumor (FIG. 7E). […] C57BL/6 mice were challenged with subcutaneous injection of MC-38 colon carcinoma cells in the right flank. Mice were treated with either 2 consecutive days of SHIP inhibitor or vehicle control each week as in FIG. 4A. Tumor size at 14, 21 and 25 days (FIG. 7D), and tumor weight (FIG. 7F) on day 25 were determined after dissection of tumor. […] FIG. 7A (n=18 per group. One-way ANOVA with Dunnett's multiple comparisons. 0 μM vs. 20 μM Adjusted p value=0.0463. All other concentrations of SHIP inhibitor compared with solvent only N.S.). FIG. 7B (n=18 per group. One-way ANOVA with Dunnett's multiple comparisons. All concentrations of SHIP inhibitor compared with solvent only N.S.). FIGS. 7C-7F graphs represent data from one of two independent experiments. FIG. 7C (n=10. Day 14 p<0.0001, Unpaired t test with Welch's correction. Day 21 p<0.0001, two-tailed student's t-test. Day 28 p<0.0001, two-tailed Student's t-test). FIG. 7E (n=10. P<0.0001, two-tailed Student's t-test) FIG. 7D (n=10. Day 14 p=0.0005, two-tailed student's t-test. Day 21 p=0.0009, two-tailed Student's t-test. Day 25 p=0.0009, two-tailed student's t-test). FIG. 7F (n=10. P=0.0067, two-tailed student's t-test).
Colorectal cancer is the second leading cause of cancer mortality in the United States (Siegel, R. L. et al., Colorectal cancer statistics, 2017. CA Cancer J Clin. (2017)). […]

The subject of the next experiment is RMA-Rael cells. In words: Acute rejection of RMA-Rael lymphoma, tumor burden by peritoneal lavage. The format is in vivo, mice. How it is done:
FIGS. 4A-4D show the effects of SHIP1 inhibition using 3AC in mice. 5×10^5 GFP-expressing RMA-Rael cells were injected into C57BL/6 (FIG. 4A), RAG1−/− (FIG. 4B), or into C57BL/6 hosts (FIG. 4C-4D) with antibody depleted (NK) or intact (Iso) NK cell compartment. Mice were treated with either SHIP inhibitor or vehicle for two days. Tumor burden was determined by flow cytometric analysis of peritoneal cavity contents recovered by peritoneal lavage performed on the third day. Graphs represent pooled data from two independent experiments using at least 4 SHIP inhibitor-treated mice and 4 vehicle-treated mice in each experiment. FIG. 4A (p=0.0433; Mann-Whitney U test). FIG. 4B (p=0.0007; Mann-Whitney U test). FIG. 4C (p=0.0153; Unpaired t test with Welch's correction). FIG. 4D (p=0.9188. Mann-Whitney U test).
To determine if acute SHIP inhibitor treatment promoted in vivo clearance of tumor cells expressing a ligand for such receptors, the ability of SHIP inhibitor treatment to increase host rejection of tumor targets in vivo using the C57BL/6-derived H2b T cell lymphoma, RMA-Rael was analyzed. NK cell mediated rejection of RMA- Rael cells requires perforin expression and is independent of IFNγ production, and thus this assay allows for interrogation of a different NK cell effector function than that analyzed in FIG. 3 (Hayakawa, Y. et al., Cutting edge: tumor rejection mediated by NKG2D receptor-ligand interaction is dependent upon perforin. J Immunol. (2002); 169: 5377-538). Mice were challenged with syngeneic tumor cells followed by treatment with 3AC or vehicle for 2 consecutive days. On the third day peritoneal lavage was performed to evaluate tumor burden. […] To assess whether NK cells contributed to acute tumor rejection the same experiment using NK cell depleted C57BL/6 hosts (DNK) was performed. […] This increase in tumor burden was not seen in vehicle treated mice that were also depleted of NK cells (FIG. 4D).

Take `CC(C)CCC[C@@H](C)[C@H]1CC[C@H]2[C@@H]3CCC4C[C@H](N)CC[C@]4(C)[C@H]3CC[C@]12C` (stereo partly drawn) [Compound 3AC, 3-α-aminocholestane]: the tumor weight result in experiment [1] (day 25, vs vehicle) is given as “significant reduction”. Further, the tumor size entry in experiment [1] (two consecutive days each week, days 14, 21, 25, vs vehicle) was “significant reduction”. Moreover, the “histological analysis (H&E) of tumors” value in experiment [1] (vs vehicle) is “prominent zones of tumor cell death”. For the same compound, in the experiment with RMA-Rael cells (3AC-treated hosts with intact NK cell compartment vs 3AC hosts depleted of NK cells), the tumor rejection entry is “significantly greater tumor rejection”. Besides, in the experiment with RMA-Rael cells (C57BL/6 hosts depleted of NK cells or not, 3AC vs vehicle), the tumor burden result is reported as “profound reduction of tumor burden; also recorded: large reduction in tumor burden”. The lymphoma burden result in the experiment with RMA-Rael cells (C57BL/6 hosts, 5×10^5 RMA-Rael, 2 consecutive days treatment, lavage on third day, vs vehicle) is “dramatic reduction”.
